What was measured:
Type in all cases: cell-based
Conditions in all cases: Gemcitabine alone, low dose 15 nM, 48 hours
[1] = system: Panc-1-Wt pancreatic cancer cells; test: Cell survival, CCK8 kit
Protocol: (§1) For cell proliferation, cytotoxicity, and cell survival measurements, […] were seeded in 96 wells plates in 100 μL of DMEM medium. Cells were incubated for 48H hours at 37° C. with an anti-STIM1 antibody targeting the C terminal of STIM1 (CDN3H4, Santa Cruz; HPA011088 or HPA012123 clones, Sigma). Cell proliferation was evaluated using the Cell Titer kit proliferation assay (Promega). Cytotoxicity was evaluated using the Cell Tox green cytotoxicity assay (Promega) and cell survival measured using the CCK8 kit from Sigma. All these kits were used following manufacturer recommendations and using a plate reader
as §1, with “with 5 μg/ml of the” for “with an”, “Santa Cruz) alone, with 15 nM Gemcitabine alone” for “Santa Cruz; HPA011088”, “or with both 5 ug/ml of the anti-STIM1 clone CDN3H4 and 15 nM Gemcitabine. Relevant controls (isotype or/and DMSO treatments) were also realized.” for “or HPA012123 clones, Sigma).”

[2] = system: Panc-1-Wt pancreatic cancer cells; test: Cell proliferation, Cell Titer kit proliferation assay
Protocol: as §1
as §1, with “with 5 μg/ml of the” for “with an”, “Santa Cruz) alone, with 15 nM Gemcitabine alone” for “Santa Cruz; HPA011088”, “or with both 5 ug/ml of the anti-STIM1 clone CDN3H4 and 15 nM Gemcitabine. Relevant controls (isotype or/and DMSO treatments) were also realized.” for “or HPA012123 clones, Sigma).”

[3] = system: Panc-1-Wt pancreatic cancer cells; test: Cytotoxicity, Cell Tox green cytotoxicity assay
Protocol: as §1
as §1, with “with 5 μg/ml of the” for “with an”, “Santa Cruz) alone, with 15 nM Gemcitabine alone” for “Santa Cruz; HPA011088”, “or with both 5 ug/ml of the anti-STIM1 clone CDN3H4 and 15 nM Gemcitabine. Relevant controls (isotype or/and DMSO treatments) were also realized.” for “or HPA012123 clones, Sigma).”

Nc1ccn([C@@H]2O[C@H](CO)[C@@H](O)C2(F)F)c(=O)n1 [Gemcitabine]
survival of pancreatic cancer cells [1]: slightly but significantly reduce | proliferation of pancreatic cancer cells [2]: slightly but significantly reduce | cell cytotoxicity [3]: without inducing cell cytotoxicity
